Like-named read-outs stand apart in the source and are kept apart here.
Columns and labels:
[1] = test system: pro-inflammatory cytokines; anti-inflammatory genes; conditions: genomic studies, no details given
coronavirus (SARS-CoV-2) = conditions: for time until all of the subject's symptoms resolved after initial treatment: 200 ng sublingual every 15 minutes for one hour, then hourly until bedtime
[2] = Example 4: person, after less than 48 hours of therapy

How did the “effect on other anti-inflammatory genes” value [1] turn out when `C[CH2][Hg][S]c1ccccc1C(=O)[O-].[Na+]` [thimerosal] was run?
Its value is “up-regulating”.

What about the “effect on several pro-inflammatory cytokines” value [1] of the same compound?
Its value is “down-regulates”.

And the “time until all of the subject's symptoms resolved after initial treatment” value (coronavirus (SARS-CoV-2); Example 1: person, positive SARS-CoV-2 test, fever 104° F., shortness of breath, cough)?
Its value is 20 to 24 h.

And the “time until all of the subject's symptoms resolved after initial treatment” value (coronavirus (SARS-CoV-2); Example 2: person, symptoms of SARS-CoV-2 infection (fever 103° F., lethargy, shortness of breath, achiness))?
Its value is no more than 24 h.

And the weakness (coronavirus (SARS-CoV-2); Example 3: person, 72 hours after initial treatment)?
The weakness was “only partially improved”.

What about the “time until all of the subject's symptoms resolved after initial treatment (with the exception of weakness)” value (coronavirus (SARS-CoV-2); Example 3: person, presumptive SARS-CoV-2 (fever, weakness, shortness of breath, cough), 200 ng sublingual, day 1 schedule, then six times daily on days two and three) of the same compound?
The value was 72 h.

And the chest pain (coronavirus (SARS-CoV-2); [2])?
Its chest pain is “not completely eliminated”.

What about the “subject-reported energy, appetite and taste” value (coronavirus (SARS-CoV-2); [2]) of the same compound?
Its value is “increased energy, increased appetite and improved ability to taste”.

What about the “time of therapy until subject reported diminution of all symptoms” value (coronavirus (SARS-CoV-2); Example 4: person, positive SARS-CoV-2 test (cough, mild fever, aching, decreased energy, stomach pain), 200 ng sublingual, day 1 schedule, then six times daily on day two) of the same compound?
Its value is “less than 48 hours”.
